Measurements reported in US11234967B2, “Use of 3-[5-amino-4-(3-cyanobenzoyl)-pyrazol-1-yl]-n-cyclopropyl-4-methylbenzamide in the prevention or reduction of acute exacerbations of chronic obstructive pulmonary disease” (MEREO BIOPHARMA 1 LIMITED, priority 2017, dated 2022).

Columns and labels:
[1] = system: acute exacerbations of COPD; assay: AETHER Phase 2 trial: occurrence of new acute exacerbations of COPD / re-hospitalisation out to 6 months; format: in vivo, human
Description: A Phase 2 trial (referred to as […]) was a double-blind, randomised, placebo-controlled clinical study investigating the use of BCT-197, on top of Standard of Care, for the treatment of patients with AECOPD. Standard of Care included the addition of steroids and/or antibiotics to a patient's chronic COPD medication and symptomatic bronchodilators. Following baseline assessment, 282 eligible patients were randomised to receive either one of two different dose regimens of BCT-197 or placebo (three doses over five days). The trial assessed adult patients ≥40 years with an acute exacerbation of COPD (as defined by increase in symptoms of cough, and/or sputum and/or breathlessness that required addition of antibiotics and or systemic corticosteroids to their regular treatment). The dosing regimen of 3-[5-amino-4-(3-cyanobenzoyl)-pyrazol-1-yl]-N-cyclopropyl-4-methylbenzamide or matching oral placebo administered are shown in Table 1. [table] BCT197 or placebo was added on top of the standard of care for the exacerbation. Exploratory long term outcomes after the acute treatment were included out to 6 months. […] Inclusion criteria for the study population were: • Males/females≥40 • On regular treatment for COPD (categories C and D by 2015 GOLD guidelines) • Presence of an active exacerbation of the ongoing COPD requiring hospitalisation for treatment: • At least one moderate or severe COPD exacerbation in the preceding 12 months • Smoking history of at least 10 pack years • FEV1<65% of the predicted normal value Exclusion criteria for the study population were: • Current diagnosis of asthma • Treatment with systemic corticosteroids or antibiotics in the prior 4 weeks. • Requiring intensive care unit treatment • Clinically significant cardiovascular condition of clinically significant ECG abnormality • Concurrent pneumonia, pulmonary embolus or pneumothorax

[2] = system: high sensitivity C-Reactive Protein (hsCRP); assay: AETHER Phase 2 trial: hsCRP blood concentration; format: in vivo, human
Description: (§1) A Phase 2 trial (referred to as AETHER) was a double-blind, randomised, placebo-controlled clinical study investigating the use of BCT-197, on top of Standard of Care, for the treatment of patients with AECOPD. Standard of Care included the addition of steroids and/or antibiotics to a patient's chronic COPD medication and symptomatic bronchodilators. Following baseline assessment, 282 eligible patients were randomised to receive either one of two different dose regimens of BCT-197 or placebo (three doses over five days).
Inflammatory biomarkers are related to disease outcomes (Barnes and Celli, Eur Respir J, 2009, 33, pp 1165-1185; Bourdin et al., Eur Respir Rev, 2009, 18, pp 198-212) and are central to the proposed mechanism of action for BCT197. A further exploratory outcome was included out to 6 months, namely the inflammatory biomarker high sensitivity C-Reactive Protein (hsCRP) measured in patients. […] This is supportive that treatment in accordance with the invention leads to a reduction in re-hospitalisations and non-hospitalised exacerbations over this period through long term reduction in inflammation.
After the acute treatment period, the hsCRP remains lower in those who had received BCT197 compared to placebo to Day 180 (p value<0.05) without additional dosing of BCT197, supporting a prolonged pharmacology effect on inflammation by BCT197.
(§2) A further exploratory outcome included over the treatment period to Day 5 and BCT197 systemic exposure (to Day 14) were the inflammatory biomarkers high sensitivity C-Reactive Protein (hsCRP) and fibrinogen measured in patient blood. […] This was maximal at Day 7 (FIGS. 12 and 13) coincident with the highest improvement in FEV1 (FIG. 11) in response to BCT197 in the same patient population with <2% eosinophils.

[3] = system: lymphocytes and neutrophils; assay: AETHER Phase 2 trial: % lymphocytes and neutrophils in blood; format: in vivo, human
Description: as §1
Systemic markers of adaptive and innate immunity are predictive of disease progression in COPD. […] Consequently, the effect of BCT197 to rebalance these biomarkers to a healthier phenotype, including beyond the period of systemic drug exposure, supports the potential benefit of the dosing regimens of the present invention.

patients with AECOPD = assay: AETHER Phase 2 trial: change in FEV1 from baseline to Day 7; format: in vivo, human; settings: for FEV1 change from baseline to Day 7, sub-group with blood eosinophils <2%: on top of standard of care, compared to other sub-groups and placebo, FIGS. 10, 11
Description: as §1, with “either” for “either one of”, “days). The primary endpoint was a comparison of change in forced expiratory volume in 1 second (FEV1) from baseline to day 7 within each arm of the study.” for “days).”
The trial assessed adult patients≥40 years with an acute exacerbation of COPD (as defined by increase in symptoms of cough, and/or sputum and/or breathlessness that required addition of antibiotics and or systemic corticosteroids to their regular treatment).
Patients received one of two oral dosing regimens of 3-[5-amino-4-(3-cyanobenzoyl)-pyrazol-1-yl]-N-cyclopropyl-4-methylbenzamide or matching oral placebo administered according to the dosing schedules shown in Table 2.
Inclusion criteria for the study population were: • Males/females≥40 • On regular treatment for COPD (categories C and D by 2015 GOLD guidelines) • Presence of an active exacerbation of the ongoing COPD requiring hospitalisation for treatment: • At least one moderate or severe COPD exacerbation in the preceding 12 months • Smoking history of at least 10 pack years • FEV1<65% of the predicted normal value […]
Efficacy of treatment was measured by the primary endpoint of change in FEV1 from baseline (before treatment) to Day 7. Patients with COPD and low eosinophils (determined by blood percentages or absolute counts) are considered to be poorly responsive to treatment of acute exacerbations using known treatments.

fibrinogen = assay: AETHER Phase 2 trial: fibrinogen blood concentration; format: in vivo, human; settings: high and low dose over 5 days; to Day 14; including <2% eosinophils; maximal at Day 7; FIG. 13
Description: as §1, with “either” for “either one of”, “days). The primary endpoint was a comparison of change in forced expiratory volume in 1 second (FEV1) from baseline to day 7 within each arm of the study.” for “days).”
as §2

AECOPD = settings: single oral dose; cited from earlier work

Q: Which results are given for `Cc1ccc(C(=O)NC2CC2)cc1-n1ncc(C(=O)c2cccc(C#N)c2)c1N` [BCT197, 3-[5-amino-4-(3-cyanobenzoyl)-pyrazol-1-yl]-N-cyclopropyl-4-methylbenzamide]?
A: re-hospitalisation for COPD ([1]; both high and low dose over 5 days, subsequent 6 months, high eosinophil sub group (Eos>2%), vs placebo, FIG. 3): able to reduce re-hospitalisation for COPD; reduction of occurrence of new exacerbations that require hospitalisation ([1]; high dose (75/40/40 mg, days 1, 3, 5) on top of standard of care, subsequent 6 months, vs placebo, FIG. 1): 40-60%; period of greatest effect on new exacerbations that require hospitalisation ([1]; high dose, based on numerical difference to placebo and statistical significance): between 3 and 4 months; recurrent exacerbations that were not hospitalised ([1]; short course of high dose, FIG. 2): reductions; hsCRP for the subsequent 6 months versus placebo ([2]; both high and low dose over 5 days, both high and low eosinophil sub group, FIGS. 4 and 5): sustained and durable reduction in hsCRP; hsCRP from baseline versus placebo ([2]; high and low dose over 5 days, to Day 14, including <2% eosinophils, maximal at Day 7, FIG. 12): dose-dependent reduction; decrease in hsCRP to day 7 during acute treatment compared to placebo ([2]; high dose, combined Eos>2% and <2%, p<0.05 at Day 3, 7 and 10, FIG. 6): significantly greater; hsCRP after the acute treatment period compared to placebo ([2]; high dose, to Day 180 without additional dosing, p value<0.05, FIG. 6): remains lower; change from baseline in % neutrophils during acute treatment ([3]; high and low dose vs placebo, greater than placebo with dose-dependent effect, FIG. 8): rapid decrease in % neutrophils; change from baseline in % lymphocytes over the acute treatment period ([3]; high and low dose vs placebo, to Day 14, FIG. 7): dose-dependent increase in lymphocytes; reduction in % neutrophils compared to placebo to Day 56 ([3]; without additional dosing, FIG. 9): remains greater; FEV1: relative difference to standard of care, >2% eosinophil sub-population (patients with AECOPD; FIG. 10 right hand side): much less than in the low eosinophil group; FEV1 change from baseline to Day 7, sub-group with blood eosinophils <2% (patients with AECOPD): substantial and consistent improvement in FEV1; FEV1 change from baseline to Day 7, sub-group with blood eosinophils <2% (patients with AECOPD; listed as compound A): significant improvement; fibrinogen from baseline versus placebo (fibrinogen): dose-dependent reduction; recovery of AECOPD to the stable disease state (AECOPD): accelerates the recovery to the stable disease state
